Measurements reported in the NIST ThermoML archive (doi:10.1016/j.fluid.2013.07.044).

Assay: Boiling temperature at pressure P
Settings: Liquid, Ebulliometric method (Recirculating still)

C1CCCCC1 [cyclohexane]
Settings | Boiling temperature at pressure P [°C]
24.08 kPa | 39.63
30.7 kPa | 45.81
38.72 kPa | 51.92
46.85 kPa | 57.17
55.2 kPa | 61.86
61.52 kPa | 65.06
69.06 kPa | 68.52
77.87 kPa | 72.22
85.44 kPa | 75.13
91.68 kPa | 77.38
101.32 kPa | 80.63

CCO [ethanol]
Settings | Boiling temperature at pressure P [°C]
20.14 kPa | 42.46
30.24 kPa | 50.67
40.31 kPa | 56.77
50.39 kPa | 61.69
70.33 kPa | 69.34
80.63 kPa | 72.62
85.67 kPa | 74.11
98.45 kPa | 77.53
100.79 kPa | 78.13
110.86 kPa | 80.53
120.93 kPa | 82.77
131.02 kPa | 84.84
141.1 kPa | 86.79
151.1 kPa | 88.62
160 kPa | 90.41
170 kPa | 92.09
180 kPa | 93.62
190 kPa | 95.16
200 kPa | 96.60

CCCCCCC [heptane]
Settings | Boiling temperature at pressure P [°C]
10.23 kPa | 35.76
16.91 kPa | 47.28
23.5 kPa | 55.43
35.39 kPa | 66.27
56.16 kPa | 79.51
67.57 kPa | 85.09
74.44 kPa | 88.22
79.37 kPa | 90.30
86.51 kPa | 93.16
100.11 kPa | 98.06

CCCCCCCC [octane]
Settings | Boiling temperature at pressure P [°C]
22.95 kPa | 79.68
29.98 kPa | 87.07
37.87 kPa | 93.74
44.82 kPa | 98.74
52.81 kPa | 103.78
59.85 kPa | 107.72
66.66 kPa | 111.21
75.23 kPa | 115.23
82.72 kPa | 118.44
89.51 kPa | 121.17
99.01 kPa | 124.72

CCCO [propan-1-ol]
Settings | Boiling temperature at pressure P [°C]
69.79 kPa | 87.71
74.92 kPa | 89.5
79.6 kPa | 90.96
84.8 kPa | 92.6
89.78 kPa | 93.99
94.77 kPa | 95.37
99.7 kPa | 96.67
105.14 kPa | 98.2
110.1 kPa | 99.27
113.19 kPa | 100.00
120.75 kPa | 101.73
130.1 kPa | 103.76
171 kPa | 111.42
199.9 kPa | 115.99
228.5 kPa | 120.00
229.9 kPa | 120.20
260 kPa | 123.98
290 kPa | 127.42
310 kPa | 129.56
330 kPa | 131.59
350 kPa | 133.54
380 kPa | 136.28
400 kPa | 138.03
420 kPa | 139.69
450 kPa | 142.08
480 kPa | 144.37
500 kPa | 145.81
520 kPa | 147.22
530 kPa | 147.91
550 kPa | 149.26
561.5 kPa | 150.01
